Reference: KR20070037041A, “누에 수번데기로부터 아데노신 유도체 화합물을 정제하는방법 및 아데노신 유도체 화합물을 포함하는 발기부전치료용 조성물” (대한민국(관리부서:농촌진흥청장), priority 2005, dated 2007)

Tests used:
[1] = cited from earlier work
[2] = tested on: bovine vascular endothelial cells (CPAE cell line) [소혈관 내피세포(CPAE cell line)]; assay: NO production in CPAE endothelial cells (total nitrate/nitrite, Nims method); type: cell-based
[3] = tested on: bovine endothelial cells (CPAE) [소내피세포(CPAE)]; type: cell-based; settings: 24 h
[4] = tested on: phosphodiesterase I from snake venom (Crotalus atrox), PDE type IV [포스포디에스테라제 I은 뱀독 (Crotalus atrox) 유래 PDE 타입 IV]; assay: Phosphodiesterase inhibition ([3H] cAMP SPA); type: biochemical
[5] = tested on: phosphodiesterase (PDE) [포스포디에스터라제]; assay: PDE inhibition in combination with existing PDE inhibitors; type: biochemical; settings: existing PDE inhibitor combined with DX fraction (20, 10, 4 μg); in words

For CCCc1nc(C)c2c(=O)[nH]c(-c3cc(S(=O)(=O)N4CCN(CC)CC4)ccc3OCC)nn12 [레비트라], the duration of erection ([1]; background) is given as at most 36 h.

In the case of CN1CC(=O)N2[C@H](c3ccc4c(c3)OCO4)c3[nH]c4ccccc4c3C[C@@H]2C1=O [시알리스], the “duration of drug effect” value ([1]; background) is given as at most 36 h.

With “5-{6-(디메틸아미노)-9H-푸린-9-일}-테트라히드로-4'-푸란-3'-올-5'-o-테트라파이로(tetrafyro)-2H-피란-3'',4'',5''-트리올 [RPC-IV]” the “NO production (540 nm)” value ([2]; RP-HPLC fractions, absorbance at 540 nm) was 1.426, the NO activity ([2]; chromatographic fractions, in words) was “최대로 방출” and the cell viability [3] was 86.9%. For the same compound, the phosphodiesterase inhibition ([4]; 0, 2, 10, 20 μg, in words) was “용량의존적 저해” and the IC50 ([4]; PDE [3H] cAMP SPA) was 0.88 µg/mL.

In the case of CCCOc1ccccc1-c1nc2nn[nH]c2c(=O)[nH]1 [자프리나스트(zaprinast)], the erection induction ([1]; compared with Viagra, Trigo-Rocha 1993, Taher 1994) is listed as “비아그라보다 다소 낮은 정도로 발기를 유도”.

With COc1cc2c(cc1OC)-c1c/c(=N\c3c(C)cc(C)cc3C)n(C)c(=O)n1CC2 [Trequinsin, 하이드로클로라이드] the “PDE inhibition on combined administration” value [5] was “상승작용”.
